Data taken from ChEMBL document CHEMBL1201862, “PubChem BioAssay data set” (2004).
Active and inactive are the calls of the source.

Columns and labels:
[1] = biological target: T1, DNA repair protein RAD52 homolog (Homo sapiens, UniProt P43351); assay type: functional, biochemical
T1 sequence (P43351 whole entry): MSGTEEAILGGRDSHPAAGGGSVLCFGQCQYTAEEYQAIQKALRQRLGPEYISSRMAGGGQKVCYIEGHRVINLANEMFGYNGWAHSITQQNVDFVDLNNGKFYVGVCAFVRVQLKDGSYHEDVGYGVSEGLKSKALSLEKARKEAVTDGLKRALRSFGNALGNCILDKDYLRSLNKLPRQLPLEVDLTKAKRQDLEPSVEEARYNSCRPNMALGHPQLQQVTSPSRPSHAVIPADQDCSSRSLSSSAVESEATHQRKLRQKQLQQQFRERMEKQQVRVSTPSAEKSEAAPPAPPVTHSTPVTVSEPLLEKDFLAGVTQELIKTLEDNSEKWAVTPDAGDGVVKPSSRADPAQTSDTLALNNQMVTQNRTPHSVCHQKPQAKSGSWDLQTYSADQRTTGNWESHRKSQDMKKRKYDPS

[2] = HeLa cell cytotoxicity, dose response, cytotoxicity control for MgcRacGAP inhibitor project (AID 624300); assay type: functional
[3] = biological target: T2, Fibrinogen beta chain (Homo sapiens, UniProt P02675); assay: Fluorescence polarization-based biochemical high throughput dose response assay to identify inhibitors that disrupt the binding of a cyclic peptide (Tn7) to the fibrin proteolytic product D-Dimer and fragment E complex [DD(E )].
[4] = biological target: T3, Histone-lysine N-methyltransferase NSD2 (Homo sapiens, UniProt O96028); assay type: biochemical
T3 sequence (O96028 whole entry): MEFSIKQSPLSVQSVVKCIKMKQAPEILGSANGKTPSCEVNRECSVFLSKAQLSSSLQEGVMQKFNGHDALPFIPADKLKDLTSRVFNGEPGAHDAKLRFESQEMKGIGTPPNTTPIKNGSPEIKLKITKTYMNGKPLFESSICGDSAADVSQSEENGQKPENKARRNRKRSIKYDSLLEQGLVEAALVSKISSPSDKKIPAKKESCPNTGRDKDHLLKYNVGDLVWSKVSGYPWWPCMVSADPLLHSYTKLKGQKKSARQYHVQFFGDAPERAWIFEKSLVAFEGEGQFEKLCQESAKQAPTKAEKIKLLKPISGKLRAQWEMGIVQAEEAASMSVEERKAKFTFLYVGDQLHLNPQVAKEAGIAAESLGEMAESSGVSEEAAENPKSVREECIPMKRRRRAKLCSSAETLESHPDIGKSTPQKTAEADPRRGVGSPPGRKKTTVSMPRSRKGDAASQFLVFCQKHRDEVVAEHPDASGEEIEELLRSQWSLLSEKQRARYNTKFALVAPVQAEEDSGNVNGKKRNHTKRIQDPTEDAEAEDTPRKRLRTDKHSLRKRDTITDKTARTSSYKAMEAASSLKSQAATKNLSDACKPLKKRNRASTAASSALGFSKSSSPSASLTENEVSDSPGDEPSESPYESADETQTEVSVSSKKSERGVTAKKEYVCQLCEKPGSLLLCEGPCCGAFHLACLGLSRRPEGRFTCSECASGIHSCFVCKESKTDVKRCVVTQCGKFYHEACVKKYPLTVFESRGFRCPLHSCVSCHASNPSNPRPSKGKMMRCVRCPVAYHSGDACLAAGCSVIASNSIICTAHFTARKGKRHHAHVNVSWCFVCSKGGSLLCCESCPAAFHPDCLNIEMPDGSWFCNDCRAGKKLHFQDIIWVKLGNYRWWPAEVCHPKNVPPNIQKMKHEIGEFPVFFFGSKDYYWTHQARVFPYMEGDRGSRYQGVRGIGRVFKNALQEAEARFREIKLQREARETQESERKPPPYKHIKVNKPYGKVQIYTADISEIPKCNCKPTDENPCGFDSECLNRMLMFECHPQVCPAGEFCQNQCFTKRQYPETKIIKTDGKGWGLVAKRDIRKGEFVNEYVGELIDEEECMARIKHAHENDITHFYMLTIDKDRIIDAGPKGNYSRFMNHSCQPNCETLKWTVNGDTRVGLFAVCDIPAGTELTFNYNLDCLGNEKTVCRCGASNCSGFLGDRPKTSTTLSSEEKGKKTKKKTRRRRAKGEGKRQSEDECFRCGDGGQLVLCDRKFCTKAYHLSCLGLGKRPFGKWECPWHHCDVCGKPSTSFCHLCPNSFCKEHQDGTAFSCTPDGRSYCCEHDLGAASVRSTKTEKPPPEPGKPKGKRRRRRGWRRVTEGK

[5] = biological target: Matrix metalloproteinase-14 (Homo sapiens, UniProt P50281); assay: Dose Response confirmation of uHTS hits for a small molecule inhibitors of MT1-MMP activation in a fluorescence assay set 1.; assay type: functional
[6] = biological target: Nonstructural protein 1 (Influenza A virus, UniProt Q194T2); assay type: functional, Influenza A virus (A/California/07/2009(H1N1))
[7] = biological target: T2, Fibrinogen beta chain; assay: Fluorescence polarization-based biochemical high throughput dose response assay to identify inhibitors that disrupt the binding of a cyclic peptide (Tn6) to the fibrin proteolytic product D-Dimer and fragment E complex [DD(E )].
[8] = biological target: T4, Rac GTPase-activating protein 1 (Homo sapiens, UniProt Q9H0H5); assay: MgcRacGAP GTPase-activating activity inhibitors, confirmation, biochemical, ADP Hunter fluorescence, primary and confirmatory (AID 624330); assay type: functional
T4 sequence (Q9H0H5 whole entry): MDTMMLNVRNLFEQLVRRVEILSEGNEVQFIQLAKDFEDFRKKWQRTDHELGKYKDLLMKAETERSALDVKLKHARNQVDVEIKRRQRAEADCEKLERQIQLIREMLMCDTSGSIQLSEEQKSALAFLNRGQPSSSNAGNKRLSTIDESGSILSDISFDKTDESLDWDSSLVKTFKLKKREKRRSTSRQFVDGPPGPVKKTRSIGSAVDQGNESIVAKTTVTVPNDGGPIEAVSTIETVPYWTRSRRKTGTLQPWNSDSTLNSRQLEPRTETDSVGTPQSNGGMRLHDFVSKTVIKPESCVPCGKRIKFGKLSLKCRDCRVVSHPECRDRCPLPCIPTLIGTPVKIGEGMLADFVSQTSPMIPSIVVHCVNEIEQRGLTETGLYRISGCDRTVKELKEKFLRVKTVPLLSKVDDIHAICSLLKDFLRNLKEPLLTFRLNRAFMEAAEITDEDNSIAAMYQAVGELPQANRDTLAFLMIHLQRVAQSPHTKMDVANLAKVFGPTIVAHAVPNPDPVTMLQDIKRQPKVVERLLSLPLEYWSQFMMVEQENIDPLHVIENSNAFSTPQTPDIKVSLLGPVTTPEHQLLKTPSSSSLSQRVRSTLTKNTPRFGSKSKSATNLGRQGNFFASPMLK

[9] = RKO cell viability reduction, dose response, CellTiter-Glo luminescence (AID 1117322); assay type: functional
[10] = HeLa 2N DNA content increase, dose response, cell-based, IC50 (AID 1117349); assay type: functional
[11] = HCT116 cell viability decrease, GSK3B pretreatment – CellTiter-Glo, IC50, dose response (AID 1117339); assay type: functional; details: HCT-116
[12] = Dose-response inhibition of insulin secretion in a rat insulinoma line at 5 mM glucose (AID 1117331); assay type: functional, cell-based; details: INS-1E
[13] = cytotoxicity toward HT-29 cells – cell-based, CellTiter-Glo luminescence, IC50, dose response (AID 1117330); assay type: functional
[14] = CellTiter-Glo luminescent dose response of DLD-1 viability loss (AID 1117352); assay type: functional
[15] = HeLa 4N DNA content increase, dose response, cell-based, IC50 (AID 1117351); assay type: functional
[16] = cytotoxicity toward Colo320 cells – cell-based, CellTiter-Glo luminescence, IC50, dose response (AID 1117334); assay type: functional; details: COLO 320
[17] = Concentration-dependent survival of SW480 colon cancer line, luminescence detection with CellTiter-Glo, half-maximal inhibitory concentration (AID 1117338); assay type: functional
[18] = SNU-C1 cell viability reduction, dose response, CellTiter-Glo luminescence (AID 1117323); assay type: functional, cell-based
[19] = A549 cell cytotoxicity, dose response, cytotoxicity control, plate reader, dry powder, set 6 (AID 743312); assay type: functional, cell-based
[20] = cells; details: HEK293
[21] = HepG2 cell cytotoxicity, dose response, cytotoxicity control, plate reader, dry powder, set 6 (AID 743311); assay type: functional, cell-based
[22] = P. falciparum ATP4 D1247Y mutant growth inhibitors, dose response, NITD609-resistant line, SYBR Green, dry powder (AID 1159571); assay type: functional, cell-based;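 also: parasites synchronized at ring stage by sorbitol before testing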
[23] = P. falciparum Dd2 growth inhibitors, dose response, SYBR Green, dry powder samples (AID 1159566); assay type: functional, cell-based;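 also: potency for growth inhibition with lower SYBR green DNA signal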
[24] = P. falciparum 3D7-ScDHODH growth inhibitors, dose response, SYBR Green, dry powder samples (AID 1159570); assay type: functional, cell-based;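 also: parasite growth measured after 72 hours of compound exposure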
[25] = P. falciparum Dd2 growth inhibitors, dose response, SYBR Green, cherry-picked samples (AID 1159567); assay type: functional, cell-based
[26] = biological target: Phospholipase D1 (Homo sapiens, UniProt Q13393); assay: PLD1 Cellular Concentration Response Study.; assay type: functional
[27] = biological target: Phospholipase D2 (Homo sapiens, UniProt O14939); assay: PLD2 Cellular Concentration Response Study.; assay type: functional
[28] = MITF Measured in Cell-Based System Using Plate Reader - 2084-01_Inhibitor_Dose_DryPowder_Activity_Set6.; assay type: functional
[29] = MITF Measured in Cell-Based System Using Plate Reader - 2084-01_Inhibitor_Dose_DryPowder_Activity_Set7.; assay type: functional
[30] = cytotoxicity in primary human melanocytes, dose response, cytotoxicity control, cell-based, plate reader, dry powder (AID 651920); assay type: functional
[31] = SK-MEL-5 parental line viability, dose response, MITF inhibitor project, cell-based, CellTiter-Glo, dry powder, set 6 (AID 624429); assay type: functional
[32] = A375 melanoma cell cytotoxicity, dose response, counter-screen for MITF inhibitor project, CellTiter-Glo luminescence, dry powder, set 6 (AID 624488); assay type: functional, cell-based; details: A-375
[33] = SK-MEL-5 parental cell viability reduction, dose response, orthogonal assay for MITF inhibitor project, CellTiter-Glo luminescence, dry powder, set 8 (AID 651586); assay type: functional, cell-based
[34] = A375 melanoma cell viability loss, dose response, counter-screen for MITF modulator project, CellTiter-Glo luminescence, dry powder, set 9 (AID 651591); assay type: functional, cell-based; details: A-375
[35] = MALME3 melanoma cell viability reduction, dose response, orthogonal assay for MITF inhibitor project, CellTiter-Glo luminescence, dry powder, set 5 (AID 651584); assay type: functional, cell-based; details: MALME-3
[36] = A375 melanoma cell viability loss, dose response, counter-screen for MITF inhibitor project, CellTiter-Glo luminescence, dry powder, set 4 (AID 624364); assay type: functional, cell-based; details: A-375;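 also: A375 melanoma cells are MITF independent so this is a counter screen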
[37] = MITF Orthogonal Assay: MALME3 CTG Assay Measured in Cell-Based System Using Plate Reader - 2084-04_Inhibitor_Dose_DryPowder_Activity_Set6.; assay type: functional; details: MALME-3
[38] = A375 melanoma cell cytotoxicity, dose response, counter-screen for MITF inhibitor project, CellTiter-Glo luminescence, dry powder, set 7 (AID 624490); assay type: functional, cell-based; details: A-375
[39] = TRPM1 promoter luciferase reporter signal decrease, dose response, MITF inhibitor project, cell-based, SK-MEL-5, dry powder, set 9 (AID 651588); assay type: functional
[40] = MITF Orthogonal Assay: SK-MEL-5 CTG Assay Measured in Cell-Based System Using Plate Reader - 2084-02_Inhibitor_Dose_DryPowder_Activity_Set5.; assay type: functional
[41] = biological target: Glutathione-S-transferase (Schistosoma japonicum, UniProt Q26513); assay: biotin-GST/anti-GST TR-FRET signal inhibitors, dose response, artefact control for Vif-APOBEC3G degradation inhibitor project, biochemical (AID 1117362); assay type: functional
[42] = biological target: T5, Protein Tat (Human immunodeficiency virus type 1 group M subtype B (isolate HXB2)(HIV-1), UniProt P04608); assay type: functional;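 also: tat binding to TAR RNA read out by fluorescence polarization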
T5 sequence (P04608 whole entry): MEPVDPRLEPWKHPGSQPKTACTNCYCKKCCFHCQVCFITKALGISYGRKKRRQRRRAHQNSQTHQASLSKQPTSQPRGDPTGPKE

T2 sequence (P02675 whole entry, the tested form may be a part): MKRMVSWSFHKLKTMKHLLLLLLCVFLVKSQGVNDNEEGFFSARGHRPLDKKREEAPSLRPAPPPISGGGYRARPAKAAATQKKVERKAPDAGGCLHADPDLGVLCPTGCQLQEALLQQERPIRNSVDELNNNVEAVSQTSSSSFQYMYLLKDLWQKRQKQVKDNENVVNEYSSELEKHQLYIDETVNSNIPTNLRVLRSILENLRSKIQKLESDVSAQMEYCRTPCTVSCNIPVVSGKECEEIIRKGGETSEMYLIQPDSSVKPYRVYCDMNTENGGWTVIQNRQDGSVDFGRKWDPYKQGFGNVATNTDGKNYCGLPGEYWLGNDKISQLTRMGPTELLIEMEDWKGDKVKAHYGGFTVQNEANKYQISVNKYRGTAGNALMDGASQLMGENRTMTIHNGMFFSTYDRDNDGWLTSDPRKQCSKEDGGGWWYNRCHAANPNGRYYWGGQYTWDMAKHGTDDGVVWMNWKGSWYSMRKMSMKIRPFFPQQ
Sequence of Phospholipase D2 (O14939 whole entry): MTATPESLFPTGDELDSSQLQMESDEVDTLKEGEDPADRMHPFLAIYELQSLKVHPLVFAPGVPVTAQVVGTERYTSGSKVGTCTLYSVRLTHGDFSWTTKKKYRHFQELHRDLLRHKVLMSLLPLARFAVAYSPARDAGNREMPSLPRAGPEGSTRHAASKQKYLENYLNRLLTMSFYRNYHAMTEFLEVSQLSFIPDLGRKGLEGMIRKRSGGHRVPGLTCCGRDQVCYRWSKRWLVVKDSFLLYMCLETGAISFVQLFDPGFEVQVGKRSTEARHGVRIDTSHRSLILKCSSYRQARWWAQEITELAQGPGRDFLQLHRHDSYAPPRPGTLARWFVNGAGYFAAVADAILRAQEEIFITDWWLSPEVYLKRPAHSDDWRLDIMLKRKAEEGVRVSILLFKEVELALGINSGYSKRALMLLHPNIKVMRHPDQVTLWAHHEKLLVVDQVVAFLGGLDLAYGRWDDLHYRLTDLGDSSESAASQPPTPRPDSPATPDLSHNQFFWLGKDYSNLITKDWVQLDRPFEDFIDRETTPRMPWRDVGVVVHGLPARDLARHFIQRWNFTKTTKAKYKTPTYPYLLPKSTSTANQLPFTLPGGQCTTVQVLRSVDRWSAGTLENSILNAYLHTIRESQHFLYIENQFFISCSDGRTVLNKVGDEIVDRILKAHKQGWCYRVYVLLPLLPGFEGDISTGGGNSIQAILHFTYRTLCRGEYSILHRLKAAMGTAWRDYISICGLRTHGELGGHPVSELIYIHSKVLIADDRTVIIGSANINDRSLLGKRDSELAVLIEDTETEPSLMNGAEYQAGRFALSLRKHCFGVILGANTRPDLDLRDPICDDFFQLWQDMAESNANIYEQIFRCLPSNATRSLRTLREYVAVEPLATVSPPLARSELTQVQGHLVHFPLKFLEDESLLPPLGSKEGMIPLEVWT
Sequence of Glutathione-S-transferase (Q26513 whole entry): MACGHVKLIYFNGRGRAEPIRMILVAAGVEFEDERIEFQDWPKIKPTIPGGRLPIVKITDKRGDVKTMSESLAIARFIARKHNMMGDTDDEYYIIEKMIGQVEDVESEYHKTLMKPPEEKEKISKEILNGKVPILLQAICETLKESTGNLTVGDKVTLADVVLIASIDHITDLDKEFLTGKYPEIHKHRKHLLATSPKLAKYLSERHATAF
Sequence of Nonstructural protein 1 (Q194T2 whole entry, the tested form may be a part): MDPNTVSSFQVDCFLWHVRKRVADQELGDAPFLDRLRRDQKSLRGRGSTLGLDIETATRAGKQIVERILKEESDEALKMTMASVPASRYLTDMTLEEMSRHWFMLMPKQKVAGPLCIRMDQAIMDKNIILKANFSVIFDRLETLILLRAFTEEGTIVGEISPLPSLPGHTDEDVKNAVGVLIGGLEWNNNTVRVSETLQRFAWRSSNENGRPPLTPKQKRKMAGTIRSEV
Sequence of Phospholipase D1 (Q13393 whole entry): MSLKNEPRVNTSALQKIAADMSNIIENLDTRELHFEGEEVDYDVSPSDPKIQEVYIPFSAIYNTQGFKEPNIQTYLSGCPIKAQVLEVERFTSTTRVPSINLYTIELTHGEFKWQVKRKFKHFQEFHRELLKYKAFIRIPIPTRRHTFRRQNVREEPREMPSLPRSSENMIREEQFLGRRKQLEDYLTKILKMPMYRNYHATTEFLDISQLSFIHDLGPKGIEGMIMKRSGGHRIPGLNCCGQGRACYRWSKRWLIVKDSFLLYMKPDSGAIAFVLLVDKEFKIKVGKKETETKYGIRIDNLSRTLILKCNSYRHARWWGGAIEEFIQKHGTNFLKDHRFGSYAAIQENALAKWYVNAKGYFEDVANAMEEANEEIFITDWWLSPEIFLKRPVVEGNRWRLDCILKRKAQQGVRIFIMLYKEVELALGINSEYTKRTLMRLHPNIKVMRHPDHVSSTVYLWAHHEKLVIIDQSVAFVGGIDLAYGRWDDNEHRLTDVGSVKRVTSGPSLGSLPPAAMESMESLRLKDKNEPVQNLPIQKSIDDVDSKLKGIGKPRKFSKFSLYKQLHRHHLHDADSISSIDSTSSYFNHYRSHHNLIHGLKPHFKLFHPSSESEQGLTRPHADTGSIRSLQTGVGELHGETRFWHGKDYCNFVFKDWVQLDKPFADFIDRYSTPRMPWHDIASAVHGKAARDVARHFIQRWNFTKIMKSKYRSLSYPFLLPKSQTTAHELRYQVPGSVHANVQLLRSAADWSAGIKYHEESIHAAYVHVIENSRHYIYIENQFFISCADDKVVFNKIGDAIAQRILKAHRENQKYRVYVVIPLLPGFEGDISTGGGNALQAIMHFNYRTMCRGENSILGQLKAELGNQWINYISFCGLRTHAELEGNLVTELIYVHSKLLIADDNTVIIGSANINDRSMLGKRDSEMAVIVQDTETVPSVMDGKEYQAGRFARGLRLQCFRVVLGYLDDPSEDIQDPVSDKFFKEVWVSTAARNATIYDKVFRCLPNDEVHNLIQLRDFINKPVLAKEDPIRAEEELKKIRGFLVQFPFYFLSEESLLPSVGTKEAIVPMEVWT

O=C1c2cccc(NCCCNCCO)c2C(=O)c2cccc(NCCCNCCO)c21
inactive: IC50 [3] > 83.3 µM | IC50 [5] 38 µM
active: AC50 [1] < 0.15 µM | CC50 [2] 25.6 µM | AC50 [4] 3.53 µM | IC50 [6] 10.1 µM | IC50 [7] 9.1 µM | IC50 [8] 27.8 µM

CC(=O)Oc1ccc(C2(c3ccc(OC(C)=O)cc3)Oc3ccccc3NC2=O)cc1 [BISOXATIN ACETATE]
active: IC50 [11] 3.26 µM
inactive: IC50 [9] 9.23 µM | IC50 [10] > 10 µM | IC50 [12] > 33.3 µM | IC50 [13] > 20 µM | IC50 [14] 19.7 µM | IC50 [15] > 10 µM | IC50 [16] > 20 µM | IC50 [17] 9.19 µM | IC50 [18] > 20 µM

Cc1ccc(C(C)C)c(OCCn2c(CO)nc3ccccc32)c1
active: AC50 [19] 38.5 µM | AC50 [20] 32.2 µM | AC50 [21] 37.4 µM

COc1ccc2c3c(n(C)c2c1)[C@@H](CO)N(C(=O)c1ccc(F)cc1)CC31CCN(C(=O)Nc2ccc(F)cc2)CC1
active: AC50 [22] 1.06 µM | AC50 [23] 0.795 µM | AC50 [24] 1.04 µM | AC50 [25] 1.89 µM

O=C(NCCN1CCC2(CC1)C(=O)NCN2Cc1cccnc1)c1cc2cc(F)ccc2[nH]1
active: IC50 [26] 3.15 µM | IC50 [27] 0.12 µM

COC1=C(NS(=O)(=O)c2cccs2)C(=O)c2ccccc2C1=O
inactive: AC50 [34] > 70 µM | AC50 [36] > 70 µM | AC50 [38] > 70 µM
active: AC50 [28] 13.2 µM | AC50 [29] 12.3 µM | AC50 [30] 64.3 µM | AC50 [31] 20.2 µM | AC50 [32] 64.7 µM | AC50 [33] 21 µM | AC50 [35] 38 µM | AC50 [37] 38 µM | AC50 [39] 26.3 µM | AC50 [40] 19.1 µM

Nc1ccc(N2CCN(CCCCN3C(=O)C4CCCN4C3=O)CC2)cc1 (stereo not drawn)
active: AC50 [1] 1.29 µM | IC50 [41] 3.15 µM | IC50 [42] > 100 µM
